Data from patent US20260191817A1, “FIBROBLAST MODULATORS IN STROMA-RICH TUMORS” (UNIVERSITEIT GENT, priority 2022, published 2026).

Experiments:
[1] = system: 4T1 primary tumors and target organs for metastasis; experiment: 4T1-based intraductal model: histology and immunohistological stainings; type: in vivo, BALB/c mice; details: for CD163 staining (tumor-associated macrophages) / CD11b staining (amounts of myeloid cells) / FAP-α staining / Ly6G staining: primary tumor tissue
Experimental: Isolated tissue of primary tumors, axillary lymph nodes, lungs and livers was fixed in buffered 3.5% formaldehyde for 24 h at room temperature (RT) and embedded in paraffin wax. Sections of 5 μm were deparaffinized, hydrated and stained with hematoxylin and eosin (H&E). To allow analysis, sections were dehydrated and mounted.
For Masson's trichrome staining, 3-5 μm thick sections were deparaffinized, hydrated and incubated ON in Bouin's solution to improve staining quality. The following day, slides were washed in distilled H2O (dH2O) and subsequently submerged 3 times in Biebrich scarlet-acid fuchsin solution, washed again in dH2O and incubated for 20 min in phosphomolybdic-phosphotungstic acid solution. Following the incubation in phosphomolybdic-phosphotungstic acid solution, slides were not rinsed, but immediately incubated in aniline blue solution for 8 min. After a final washing step with dH2O, slides were incubated in 1% acetic acid solution for 8 min. Sections were then quickly dehydrated through 94% ethyl alcohol, absolute alcohol to remove Biebrich scarlet-acid fuchsin staining and xylene to clear the slide before mounting with Tissue-Tek glass mounting medium. The staining visualizes collagen in blue, nuclei in dark red, cytoplasm in red/pink. Quantification of positive staining was established using color deconvolution (for Masson's trichrome staining) followed by automatic counting in ImageJ.
For immunohistochemical staining, antigen retrieval was performed on 3-5 μm thick deparaffinized sections with citrate buffer (10 mM tri-sodium citrate (Santa Cruz Biotechnology, Heidelberg, Germany) for α-SMA, CD11 b, Ly6G, and CD163), pH 6 or with Tris-EDTA buffer [pH 9, 10 mM Tris, 1 mM EDTA (Thermo Fisher Scientific) for PDPN and FAP-α) at 95° C. for 30 min using a pressurized Decloaking Chamber NxGen (Biocare Medical, CA, USA). The slides were cooled down to RT for 30 min and subsequently incubated on an orbital shaker at 20 rpm in a closed microscope box with tris-buffered saline (TBS, Biocare Medical)-wetted tissue paper for all blocking, rinsing (between every incubation step with TBS, 3 times for 2 min at RT) and staining steps. To block endogenous peroxidase activity, slides were first treated with 3% H2O2 in methanol for 10 min. To block non-specific binding sites, the slides were subsequently treated with serum-free protein block (Dako, Heverlee, Belgium) for 10 min.
The slides were then stained with primary antibodies diluted in Antibody Diluent (Dako) for 1 h at RT followed by incubation with secondary antibody for 30 min at RT. The used primary antibodies and dilutions were: anti-α-SMA (1:2000, clone EPR5368, Abcam, Cambridge, UK), anti-PDPN (1:100, clone PMab-1, Abcam), anti-FAP-α (1:100, polyclonal, Abcam), anti-CD11b (1:4000, clone EPR1344, Abcam), anti-Ly6G (1:1000, clone 1A8, Biolegend, CA, USA), anti-CD163 (1:500, clone EPR19518, Abcam). The used secondary antibodies were Rat-on-Mouse HRP-Polymer (Biocare Medical) for PDPN and Ly6G, and ready to-use Dako EnVision+ Rabbit for α-SMA, FAP-α, CD11b, and CD163. For visualization of HRP-positive staining, slides were treated with a 3,3′-diaminobenzidine (DAB)-containing buffer (Dako) for 10 min at RT. Counterstaining with hematoxylin was applied for 5 min at RT, followed by dehydration and mounting of the slides with Tissue-Tek glass mounting medium. Quantification of positive staining was established using color deconvolution (for DAB and hematoxylin counterstaining) followed by automatic counting in ImageJ.

4T1-luc cells = experiment: 4T1-based intraductal model for triple-negative breast cancer: metastases; type: in vivo, BALB/c mice; details: oral in Medigel, 100 mg/kg three times per day; 6 w p.i.; compared to DMSO
Experimental: Intraductal inoculations were performed in the third mammary gland pair of lactating female mice. In order to become lactating, 8-w-old female BALB/c mice were mated with male BALB/c mice of the same age and pups were weaned 12-14 d after delivery. One hour after weaning, lactating females received inhalation anesthesia using a mixture of oxygen and isoflurane (2-3%) and were subsequently inoculated through the mammary teat canal using a 32-gauge blunt needle with 5×10^4 4T1-luc cells suspended in a 100 μl mixture of PBS and Matrigel® (1:10; Corning, Bedford, MA, USA). All necessary materials for inoculation were pre-cooled to avoid Matrigel® coagulation. […]
Compounds were dissolved in DMSO. […] The amount of Medigel given to the mice was weekly determined and depended on the mean mouse body weight and consumption. […]
Body weight and body temperature were measured every day during the first week p.i., and once a week during the following 5 weeks (i.e. up to 6 w p.i.) using a digital weighing scale and a rectal temperature probe, respectively. As a measurement of primary tumor growth, primary tumor volumes were weekly monitored using a digital caliper and 4T1-luc-derived bioluminescence in primary tumors was monitored at 1, 3 and 6 w p.i. using the IVIS lumina III system (PerkinElmer, Zaventem, Belgium). […]

[2] = compared to DMSO treatment, data not shown
[3] = primary tumor, compared to DMSO
[4] = primary tumors, compared to DMSO

Row | SMILES | size of lung and liver metastases (H&E) [1, 2] | Masson's trichrome staining (collagen deposition) ([1]; liver tissue, compared to DMSO) | PDPN staining ([1]; liver tissue, compared to DMSO) | α-SMA staining (CAFs) ([1]; liver tissue, compared to DMSO) | CD163 staining (tumor-associated macrophages) [1] | CD11b staining (amounts of myeloid cells) ([1]; compared to DMSO) | FAP-α staining ([1]; compared to DMSO) | Ly6G staining ([1]; compared to DMSO) | Masson's trichrome staining (collagen deposition) [1, 3] | PDPN staining ([1]; primary tumors, P<0.001) | α-SMA staining (amount of CAFs) [1, 4] | metastatic burden in lung, liver and axillary lymph node metastases (ex-vivo bioluminescence) (4T1-luc cells) | size of axillary lymph node metastases (H&E) [1, 2]
1 | COc1cc(C(=O)/C=C/c2ccc(F)cc2)cc(OC)c1OC [Compound A1, 3-(4-Fluorophenyl)-1-(3,4,5-trimethoxyphenyl)prop2-en-1-one] | Smaller | significant reduction | significantly decreased | significant reduction | significantly decreased | significantly decreased | significantly decreased | reduction | significantly decreased | significantly decreased | significantly decreased | overall reduction | –
2 | COc1cc2oc(-c3ccc(F)cc3)cc(=O)c2c(OC)c1OC [Compound B1, 2-(4-Fluorophenyl)-5,6,7-trimethoxy-4H-chromen-4-one] | – | significant reduction | significantly decreased | significant reduction | significantly decreased | significantly decreased | significantly decreased | reduction | significantly decreased | significantly decreased | significantly decreased | overall reduction | smaller
